Measured values published in patent US20100087481A1, “ORAL PHARMACEUTICAL FORMULATIONS FOR ANTIDIABETIC COMPOUNDS” (priority 2008, published 2010).
Like-named read-outs stand apart in the source and are kept apart here.

How the values were obtained:
[1] = Solubility in selected oil-based media; assay type: physicochemical; conditions: oil or lipid, read-out: Solubility, Concentration
[2] = in aqueous solvents and in most organic solvents; cited from earlier work
[3] = Chemical stability in selected oil-based media; assay type: physicochemical
Procedure: Studies were performed over a 2 week period at −20° C., 2-8° C., 40° C./75% RH and 60° C. At the elevated temperatures, chemical stability was monitored in the presence and absence of argon. Additionally, the pH stability of the drug was assessed over a seven week period at 40° C./75% RH, pH 2, 3, 5, 7, 9, and 10. […] In oil-based media containing neat Capmul® MCM or phosphatidylcholine (Phospholipon® 90G, Phosal® 53 MCT), drug recovery was >99%. […] The degradation observed in Capmul® MCM was inhibited by the addition of argon.

[4] = Physical stability in selected oil-based media (visual); assay type: physicochemical
Description: Physical stability of the drug was monitored visually.

solubility ([1]; Capmul® MCM (oil-based medium), in Capmul ® MCM): 16600 µg/mL
solubility ([1]; Capmul® PG8 (oil-based medium), in Capmul ® PG8): 2010 µg/mL
solubility ([1]; Captex® 200 (oil-based medium), in Captex ® 200): 450 µg/mL
solubility ([1]; Captex® 300EP (oil-based medium), in Captex ® 300EP): 280 µg/mL
solubility ([1]; Captex® 355 (oil-based medium), in Captex ® 355): 520 µg/mL
solubility ([1]; Crodamol® (oil-based medium), in Crodamol ®): 450 µg/mL
solubility ([1]; Inwitor 742 (oil-based medium), in Inwitor 742): 7930 µg/mL
solubility ([1]; Labrafac® CC (oil-based medium), in Labrafac ® CC): 290 µg/mL
solubility ([1]; Labrafil® M 1944 CS (oil-based medium), in Labrafil ® M 1944 CS): 2340 µg/mL
solubility ([1]; Labrasol® (oil-based medium), in Labrasol ®): 29200 µg/mL
solubility ([1]; Maisine 35-I (oil-based medium), in Maisine 35-I): 1160 µg/mL
solubility ([1]; Miglyol® 132 (oil-based medium), in Miglyol ® 132): 800 µg/mL
solubility ([1]; Miglyol® 810N (oil-based medium), in Miglyol ® 810N): 380 µg/mL
solubility ([1]; Miglyol® 812N (oil-based medium), in Miglyol ® 812N): 7930 µg/mL
solubility ([1]; Peceol (oil-based medium), in Peceol): 3940 µg/mL
solubility ([1]; Phosal® 53 MCT (oil-based medium), in Phosal ® 53 MCT): 43400 µg/mL
solubility ([1]; in Corn Oil): 160 µg/mL
solubility ([1]; in Super-refined soybean oil): 40 µg/mL
Drug degradation ([3]; in Capmul® MCM at 60° C.): 7%
Effect of argon on degradation ([3]; in Capmul® MCM, addition of argon): inhibited
Drug degradation ([3]; in Phosal® 53 MCT at 60° C.): no drug degradation
Degradation of the drug ([3]; in the presence of Labrasol®, Capmul® MCM and Phospholipon® 90G, 40° C., 2-week period): little or no degradation
Physical stability (visual) ([4]; addition of 47% Capmul® MCM to oil-based media containing Phospholipon® 90G): inhibited solid formation
Physical stability (visual) ([4]; high concentrations of Capmul® (>80%)): solidification and cloudiness
Physical stability (visual) ([4]; warming then cooling compositions with more than 50% Phospholipon® 90G): formation of a fine suspension
Compound: O=S(=O)(Nc1cc(Cl)c(Oc2cnc3ccccc3c2)c(Cl)c1)c1ccc(Cl)cc1Cl.O=S(=O)(O)c1ccccc1 [besylate salt of compound 101, 2,4-Dichloro-N-[3,5-dichloro-4-(quinolin-3-yloxy)-phenyl]-benzenesulfonamide benzenesulfonate salt]
Solubility in words [2]: sparingly soluble
